Laboratory results as given in US11026944B2, “Compositions and methods for treating insomnia” (Eisai R&D Management Co., Ltd., priority 2014, dated 2021).

System: subjects with insomnia
Test: 201 Study: polysomnography (SE, LPS, WASO) dose-response
Type: in vivo, human
Experimental: This was a multi-center, randomized, double-blind, adaptive design, dose-response study in subjects with insomnia. Subjects were randomized to 1 of 6 doses of compound A (1 mg, 2.5 mg, 5 mg, 10 mg, 15 mg and 25 mg) or placebo.
The study had 2 phases: Prerandomization and Randomization. The Prerandomization Phase lasted up to 21 days and consisted of a Screening Period (Days-21 to -2) and a Baseline Period (Day-1). After the Baseline Period, all eligible subjects were randomized in a double-blind manner to receive compound A or placebo for 15 nights during the Treatment Period (Days 1 to 15). All subjects then received placebo in a single-blind manner, for 2 nights (Days 16 to 17) during the Rebound Insomnia Assessment Period (Days 16 to 18). […] All subjects came to the clinic for screening procedures. During the Screening Period, subjects completed the Sleep Diary each day. Polysomnographic sleep was measured during the Screening Period on 2 consecutive nights between Day-9 and Day-3. The 8-hour polysomnograms (PSGs) were started at the median habitual bedtime calculated from responses on the Sleep Diary, which were completed for 7 days before the first PSG night. These recordings served as both eligibility screening PSGs and as Baseline PSGs. Subjects could leave the clinic between the screening/Baseline PSG nights.
All subjects returned to the clinic on Day-1 for Baseline Period procedures. They remained in the clinic until Day 3. Morning assessments on Day 1 provided the Baseline values for the KSS, the Digit Symbol Substitution Test (DSST), and the Reaction Time Index (RTI). Assessments at 6 hours after waketime provided the Baseline values for the Waking Function Battery (WFB), and the Profile of Mood States-Brief (POMS-B). Subjects were then randomized to receive 1 of 6 doses of compound A or placebo for the next 15 days. Study drugs were tablets containing compound A-matched placebo or compound A of 1 mg, 2.5 mg, 5 mg, or 10 mg and to be ingested 30 minutes before the median habitual bedtime calculated from their Sleep Diary responses during the Screening Period. An 8-hour PSG, starting at the same bedtime as used for the screening and Baseline PSG nights, was recorded on the first 2 treatment nights (Days 1 and 2). The Sleep Diary continued to be completed each day in the clinic, and assessments of insomnia severity (ISI), next-day residual effects (KSS, DSST, and RTI) were conducted while subjects were in the clinic. On specified study days, plasma concentrations of compound A were assessed while subjects were in the clinic in the morning after awakening and at trough just before dosing.
Subjects continued to take compound A or placebo 30 minutes before their anticipated, self-selected bedtime and continued to complete the Sleep Diary each day while at home during the Treatment Period. On Day 14 of the Treatment Period, subjects returned to the clinic. They remained in the clinic for 4 nights and the intervening days until Day 18. Eight-hour PSGs were recorded each night in the clinic, to start at the median habitual bedtime calculated from responses on the Sleep Diary completed on Days 3 to 13. The Sleep Diary continued to be completed each day in the clinic, and the ISI, KSS, DSST, RTI, were administered at prespecified time points during the daytime hours.
In Table 5, “Baseline” was defined as the mean of the screening PSG 1 and 2, within −9 to −3 days of randomization. “LS Means Diff” refers to the differences between LS Means of Placebo and each compound A dose, “95% CI” means to 95% CI of LS Means Diff. “p-value” was analyzed using analysis of covariance (ANCOVA) with baseline as a covariate.
In Table 7, “Baseline” was defined as the mean of the screening PSG 1 and 2, within −9 to −3 days of randomization. “p-value” was analyzed using analysis of covariance (ANCOVA) with baseline as a covariate.
In Table 8, “Baseline” was defined as the mean of the screening PSG 1 and 2, within −9 to −3 days of randomization. […]

In the case of Cc1ncc(OC[C@@]2(c3cccc(F)c3)C[C@H]2C(=O)Nc2ccc(F)cn2)c(C)n1 [Compound A, (1R,2 S)-2-(((2,4-dimethylpyrimidin-5-yl)oxy)methyl)-2-(3-fluorophenyl)-N-(5-fluoropyridin-2-yl) cyclopropanecarboxamide], the “Change from Baseline in LPS, Mean of Days 1 & 2: Geometric Mean Ratio (compound A/placebo)” value (1 mg nightly) is reported as 0.77, the “Change from Baseline in LPS, Mean of Days 14 & 15: Geometric Mean Ratio (compound A /placebo)” value (1 mg nightly) is reported as 0.73 and the “Change from Baseline in SE, Mean of Days 1 & 2: LS Means Diff vs placebo” value (1 mg nightly) is reported as 4.57%. The “Change from Baseline in SE, Mean of Days 1 & 2: Mean” value (1 mg nightly) was 21.1%, the “Change from Baseline in SE, Mean of Days 14 & 15: LS Means Diff vs placebo” value (1 mg nightly) was 0.34% and the “Change from Baseline in SE, Mean of Days 14 & 15: Mean” value (1 mg nightly) was 17.5%. The “Change from Baseline in WASO, Mean of Days 1 & 2: LS Means Diff vs placebo” value (1 mg nightly) was -11.1 min, the “Change from Baseline in WASO, Mean of Days 1 & 2: Mean” value (1 mg nightly) was -60.9 min and the “Change from Baseline in WASO, Mean of Days 14 & 15: LS Means Diff vs placebo” value (1 mg nightly) was 5.7 min. The “Change from Baseline in WASO, Mean of Days 14 & 15: Mean” value (1 mg nightly) was -43.6 min, the “LPS geometric mean ratio vs placebo, significance” value (1 mg, Mean of Days 1/2) was “not statistically significant” and the “Change from Baseline in LPS, Mean of Days 1 & 2: Geometric Mean Ratio (compound A/placebo)” value (2.5 mg nightly) was 0.55. For the same compound, the “Change from Baseline in LPS, Mean of Days 14 & 15: Geometric Mean Ratio (compound A /placebo)” value (2.5 mg nightly) was 0.49, the “Change from Baseline in SE, Mean of Days 1 & 2: LS Means Diff vs placebo” value (2.5 mg nightly) was 4.44% and the “Change from Baseline in SE, Mean of Days 1 & 2: Mean” value (2.5 mg nightly) was 21.3%. For the same compound, the “Change from Baseline in SE, Mean of Days 14 & 15: LS Means Diff vs placebo” value (2.5 mg nightly) was 3.94%, the “Change from Baseline in SE, Mean of Days 14 & 15: Mean” value (2.5 mg nightly) was 20.7% and the “Change from Baseline in WASO, Mean of Days 1 & 2: LS Means Diff vs placebo” value (2.5 mg nightly) was -2.3 min. For the same compound, the “Change from Baseline in WASO, Mean of Days 1 & 2: Mean” value (2.5 mg nightly) was -51.1 min, the “Change from Baseline in WASO, Mean of Days 14 & 15: LS Means Diff vs placebo” value (2.5 mg nightly) was -2.3 min and the “Change from Baseline in WASO, Mean of Days 14 & 15: Mean” value (2.5 mg nightly) was -48.9 min. The “Change from Baseline in LPS, Mean of Days 1 & 2: Geometric Mean Ratio (compound A/placebo)” value (5 mg nightly) was 0.60, the “Change from Baseline in LPS, Mean of Days 14 & 15: Geometric Mean Ratio (compound A /placebo)” value (5 mg nightly) was 0.47 and the “Change from Baseline in SE, Mean of Days 1 & 2: LS Means Diff vs placebo” value (5 mg nightly) was 5.74%. The “Change from Baseline in SE, Mean of Days 1 & 2: Mean” value (5 mg nightly) was 21.2%, the “Change from Baseline in SE, Mean of Days 14 & 15: LS Means Diff vs placebo” value (5 mg nightly) was 5.76% and the “Change from Baseline in SE, Mean of Days 14 & 15: Mean” value (5 mg nightly) was 21.0%. For the same compound, the “Change from Baseline in WASO, Mean of Days 1 & 2: LS Means Diff vs placebo” value (5 mg nightly) was -11.3 min, the “Change from Baseline in WASO, Mean of Days 1 & 2: Mean” value (5 mg nightly) was -55.6 min and the “Change from Baseline in WASO, Mean of Days 14 & 15: LS Means Diff vs placebo” value (5 mg nightly) was -10.7 min. For the same compound, the “Change from Baseline in WASO, Mean of Days 14 & 15: Mean” value (5 mg nightly) was -52.2 min, the “LPS, Days 1/2 compared to Days 14/15” value (10 mg) was “further improvement in LPS over time” and the “Change from Baseline in LPS, Mean of Days 1 & 2: Geometric Mean Ratio (compound A/placebo)” value (10 mg nightly) was 0.54. The “Change from Baseline in LPS, Mean of Days 14 & 15: Geometric Mean Ratio (compound A /placebo)” value (10 mg nightly) was 0.32, the “Change from Baseline in SE, Mean of Days 1 & 2: LS Means Diff vs placebo” value (10 mg nightly) was 8.09% and the “Change from Baseline in SE, Mean of Days 1 & 2: Mean” value (10 mg nightly) was 21.9%. For the same compound, the “Change from Baseline in SE, Mean of Days 14 & 15: LS Means Diff vs placebo” value (10 mg nightly) was 7.78%, the “Change from Baseline in SE, Mean of Days 14 & 15: Mean” value (10 mg nightly) was 21.7% and the “Change from Baseline in WASO, Mean of Days 1 & 2: LS Means Diff vs placebo” value (10 mg nightly) was -19.8 min. For the same compound, the “Change from Baseline in WASO, Mean of Days 1 & 2: Mean” value (10 mg nightly) was -56.7 min, the “Change from Baseline in WASO, Mean of Days 14 & 15: LS Means Diff vs placebo” value (10 mg nightly) was -14.7 min and the “Change from Baseline in WASO, Mean of Days 14 & 15: Mean” value (10 mg nightly) was -48.5 min. For the same compound, the “Change from Baseline in LPS, Mean of Days 1 & 2: Geometric Mean Ratio (compound A/placebo)” value (15 mg nightly) was 0.52, the “Change from Baseline in LPS, Mean of Days 14 & 15: Geometric Mean Ratio (compound A /placebo)” value (15 mg nightly) was 0.41 and the “Change from Baseline in SE, Mean of Days 1 & 2: LS Means Diff vs placebo” value (15 mg nightly) was 10.06%. For the same compound, the “Change from Baseline in SE, Mean of Days 1 & 2: Mean” value (15 mg nightly) was 23.8%, the “Change from Baseline in SE, Mean of Days 14 & 15: LS Means Diff vs placebo” value (15 mg nightly) was 7.89% and the “Change from Baseline in SE, Mean of Days 14 & 15: Mean” value (15 mg nightly) was 21.2%.
